≈ marks a conversion by molar mass, not a printed value. Numbered stars: 1 amine (or outer) side, 2 acyl side, 3 side chain; on linkers, the order of the positions; unused ones are H or OH. Side chains are listed from the residue outwards. Peptide text beside a SMILES is read from it. * marks the point of attachment. C18 diacid = O=C(O)CCCCCCCCCCCCCCCCC(=O)*; γGlu = O=C(O)[C@H](CCC(=O)[*:2])N[*:1]; AEEA = NCCOCCOCC(=O)O
Key:
GC receptor = molecular target: T1, GC receptor (Homo sapiens, UniProt P47871); assay: GC receptor mediated cAMP production in vitro (HEK293 cells transfected with GC receptor); type: cell-based; details: 20 min at 37° C., read-out: GCGR (nM EC50)
T1 construct: expressed in transfected cells; host or cells: HEK293 cells
From the text: The medium was removed, the cells were lysed, and cAMP values were detected referring to the detection method described for the assay kit.

physchem = type: physicochemical
[1] = pH 7.5, Solubility, pH 7.5, 10 mM phosphate buffer
[2] = pH 7.5, Solubility, pH 7.5, 20 mM phosphate buffer
[3] = pH 8, Solubility, pH 8.0, 10 mM phosphate buffer
[4] = pH 8, Solubility, pH 8.0, 20 mM phosphate buffer
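Wherever Solubility is given: compound added at 2 mg per mL of phosphate buffer, with the dissolved amount determined in the supernatant.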
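Wherever Solubility, pH 7.5, 20 mM phosphate buffer is given: compound added at 2 mg per mL of phosphate buffer, with the dissolved amount determined in the supernatant.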

T1 sequence (P47871 26-477): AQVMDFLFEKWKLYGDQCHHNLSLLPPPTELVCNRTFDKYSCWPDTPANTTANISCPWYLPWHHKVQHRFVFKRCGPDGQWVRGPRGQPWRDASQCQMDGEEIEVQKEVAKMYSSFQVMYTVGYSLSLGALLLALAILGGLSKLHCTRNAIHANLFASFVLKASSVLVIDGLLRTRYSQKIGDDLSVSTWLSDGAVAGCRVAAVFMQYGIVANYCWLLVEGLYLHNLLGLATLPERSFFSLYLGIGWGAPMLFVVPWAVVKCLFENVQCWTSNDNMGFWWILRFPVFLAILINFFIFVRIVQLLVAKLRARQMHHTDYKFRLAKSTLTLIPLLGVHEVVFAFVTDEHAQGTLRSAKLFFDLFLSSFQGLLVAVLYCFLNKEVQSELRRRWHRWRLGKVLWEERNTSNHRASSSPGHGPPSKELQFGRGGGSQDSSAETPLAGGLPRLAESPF

Compound	EC50 (GC receptor) [nM]	solubility (physchem; [1]) [µg/mL]	solubility (physchem; [2]) [µg/mL]	solubility (physchem; [3]) [µg/mL]	solubility (physchem; [4]) [µg/mL]	Solubility, pH 7.5, 20 mM phosphate buffer (physchem; pH 7.5)
CCCCCCCCCCCCCCCC(=O)N[C@@H](CCC(=O)N[C@@H](CCC(=O)NCCCC[C@H](NC(=O)[C@H](CC(=O)O)NC(=O)[C@H](CO)NC(=O)[C@@H](NC(=O)[C@H](Cc1ccccc1)NC(=O)[C@@H](NC(=O)CNC(=O)[C@H](CCC(N)=O)NC(=O)C(C)(C)NC(=O)[C@@H](N)Cc1c[nH]cn1)[C@@H](C)O)[C@@H](C)O)C(=O)N[C@@H](CO)C(=O)N[C@@H](CCCCN)C(=O)N[C@@H](Cc1ccc(O)cc1)C(=O)N[C@@H](CC(C)C)C(=O)N[C@@H](CCC(=O)O)C(=O)N[C@@H](CCC(=O)O)C(=O)N[C@@H](CCCNC(=N)N)C(=O)N[C@@H](C)C(=O)N[C@@H](C)C(=O)N[C@@H](CCCCN)C(=O)N[C@@H](CCC(=O)O)C(=O)N[C@@H](Cc1ccccc1)C(=O)N[C@H](C(=O)N[C@@H](CCC(=O)O)C(=O)N[C@@H](Cc1c[nH]c2ccccc12)C(=O)N[C@@H](CC(C)C)C(=O)N[C@@H](CC(C)C)C(=O)N[C@@H](CCC(=O)O)C(=O)N[C@@H](C)C(=O)NCC(=O)NCC(=O)N1CCC[C@H]1C(=O)N[C@@H](CO)C(=O)N[C@@H](CO)C(=O)NCC(N)=O)C(C)C)C(=O)O)C(=O)O [Compound 25] (HELM PEPTIDE1{H.[Aib].Q.G.T.F.T.S.D.K.S.K.Y.L.E.E.R.A.A.K.E.F.V.E.W.L.L.E.A.G.G.P.S.S.G.[am]}|PEPTIDE2{[CCCCCCCCCCCCCCCC(=O)[*:2]].[gGlu].[gGlu]}$PEPTIDE1,PEPTIDE2,10:R3-3:R2$$$V2.0; N-terminus assumed)	0.278	300 (≈ 69.2 µM)	100 (≈ 23.1 µM)	500 (≈ 115 µM)	200 (≈ 46.1 µM)	–
CCCCCCCCCCCCCCCC(=O)N[C@@H](CCC(=O)N[C@@H](CCC(=O)NCCCC[C@H](NC(=O)[C@H](C)NC(=O)[C@H](CCCNC(=N)N)NC(=O)[C@H](CCCCN)NC(=O)[C@H](CCC(=O)O)NC(=O)[C@H](CCC(=O)O)NC(=O)[C@H](CC(C)C)NC(=O)[C@H](Cc1ccc(O)cc1)NC(=O)[C@H](CCCCN)NC(=O)[C@H](CO)NC(=O)[C@H](Cc1ccc(O)cc1)NC(=O)[C@H](CC(=O)O)NC(=O)[C@H](CO)NC(=O)[C@@H](NC(=O)[C@H](Cc1ccccc1)NC(=O)[C@@H](NC(=O)CNC(=O)[C@H](CCC(N)=O)NC(=O)C(C)(C)NC(=O)[C@@H](N)Cc1c[nH]cn1)[C@@H](C)O)[C@@H](C)O)C(=O)N[C@@H](CCC(=O)O)C(=O)N[C@@H](Cc1ccccc1)C(=O)N[C@H](C(=O)N[C@@H](CCC(=O)O)C(=O)N[C@@H](Cc1c[nH]c2ccccc12)C(=O)N[C@@H](CC(C)C)C(=O)N[C@@H](CC(C)C)C(=O)N[C@@H](CCC(=O)O)C(=O)N[C@@H](C)C(=O)NCC(=O)NCC(=O)N1CCC[C@H]1C(=O)N[C@@H](CO)C(=O)N[C@@H](CO)C(=O)NCC(N)=O)C(C)C)C(=O)O)C(=O)O [Compound 26] (HELM PEPTIDE1{H.[Aib].Q.G.T.F.T.S.D.Y.S.K.Y.L.E.E.K.R.A.K.E.F.V.E.W.L.L.E.A.G.G.P.S.S.G.[am]}|PEPTIDE2{[CCCCCCCCCCCCCCCC(=O)[*:2]].[gGlu].[gGlu]}$PEPTIDE1,PEPTIDE2,20:R3-3:R2$$$V2.0; N-terminus assumed)	0.197	80 (≈ 18.1 µM)	–	200 (≈ 45.2 µM)	100 (≈ 22.6 µM)	Insoluble
CCCCCCCCCCCCCCCC(=O)N[C@@H](CCC(=O)N[C@@H](CCC(=O)NCCCC[C@H](NC(=O)[C@H](C)NC(=O)[C@H](CCCNC(=N)N)NC(=O)[C@H](CCCCN)NC(=O)[C@H](CCC(=O)O)NC(=O)[C@H](CCC(=O)O)NC(=O)[C@H](CC(C)C)NC(=O)[C@H](Cc1ccc(O)cc1)NC(=O)[C@H](CCCCN)NC(=O)[C@H](CO)NC(=O)[C@H](Cc1ccc(O)cc1)NC(=O)[C@H](CC(=O)O)NC(=O)[C@H](CO)NC(=O)[C@@H](NC(=O)[C@H](Cc1ccccc1)NC(=O)[C@@H](NC(=O)CNC(=O)[C@H](CCC(N)=O)NC(=O)C(C)(C)NC(=O)[C@@H](N)Cc1c[nH]cn1)[C@@H](C)O)[C@@H](C)O)C(=O)N[C@@H](CCC(=O)O)C(=O)N[C@@H](Cc1ccccc1)C(=O)N[C@H](C(=O)N[C@@H](CCC(=O)O)C(=O)N[C@@H](Cc1c[nH]c2ccccc12)C(=O)N[C@@H](CC(C)C)C(=O)N[C@@H](CCC(=O)O)C(=O)NCC(=O)NCC(=O)N1CCC[C@H]1C(=O)N[C@@H](CO)C(=O)N[C@@H](CO)C(=O)NCC(N)=O)C(C)C)C(=O)O)C(=O)O [Compound 76] (HELM PEPTIDE1{H.[Aib].Q.G.T.F.T.S.D.Y.S.K.Y.L.E.E.K.R.A.K.E.F.V.E.W.L.E.G.G.P.S.S.G.[am]}|PEPTIDE2{[CCCCCCCCCCCCCCCC(=O)[*:2]].[gGlu].[gGlu]}$PEPTIDE1,PEPTIDE2,20:R3-3:R2$$$V2.0; N-terminus assumed)	0.191	–	–	–	–	–

Next, values leading:

EC50 (GC receptor) [nM]	solubility (physchem; [1]) [µg/mL]	solubility (physchem; [2]) [µg/mL]	solubility (physchem; [3]) [µg/mL]	solubility (physchem; [4]) [µg/mL]	Solubility, pH 7.5, 20 mM phosphate buffer (physchem; pH 7.5)	Compound
0.092	140 (≈ 33.2 µM)	50 (≈ 11.8 µM)	160 (≈ 37.9 µM)	200 (≈ 47.4 µM)	–	CCCCCCCCCCCCCCCC(=O)N[C@@H](CCC(=O)N[C@@H](CCC(=O)NCCCC[C@H](NC(=O)[C@H](CC(=O)O)NC(=O)[C@H](CO)NC(=O)[C@@H](NC(=O)[C@H](Cc1ccccc1)NC(=O)[C@@H](NC(=O)CNC(=O)[C@H](CCC(N)=O)NC(=O)C(C)(C)NC(=O)[C@@H](N)Cc1c[nH]cn1)[C@@H](C)O)[C@@H](C)O)C(=O)N[C@@H](CO)C(=O)N[C@@H](CCCCN)C(=O)N[C@@H](Cc1ccc(O)cc1)C(=O)N[C@@H](CC(C)C)C(=O)N[C@@H](CCC(=O)O)C(=O)N[C@@H](CCC(=O)O)C(=O)N[C@@H](CCCNC(=N)N)C(=O)N[C@@H](C)C(=O)N[C@@H](C)C(=O)N[C@@H](CCCCN)C(=O)N[C@@H](CCC(=O)O)C(=O)N[C@@H](Cc1ccccc1)C(=O)N[C@H](C(=O)N[C@@H](C)C(=O)N[C@@H](Cc1c[nH]c2ccccc12)C(=O)N[C@@H](CC(C)C)C(=O)N[C@@H](CC(C)C)C(=O)N[C@@H](CCC(=O)O)C(=O)NCC(=O)NCC(=O)N1CCC[C@H]1C(=O)N[C@@H](CO)C(=O)N[C@@H](CO)C(=O)NCC(N)=O)[C@@H](C)CC)C(=O)O)C(=O)O [Compound 16] (HELM PEPTIDE1{H.[Aib].Q.G.T.F.T.S.D.K.S.K.Y.L.E.E.R.A.A.K.E.F.I.A.W.L.L.E.G.G.P.S.S.G.[am]}|PEPTIDE2{[CCCCCCCCCCCCCCCC(=O)[*:2]].[gGlu].[gGlu]}$PEPTIDE1,PEPTIDE2,10:R3-3:R2$$$V2.0; N-terminus assumed)
0.175	> 2000	> 2000	–	–	–	CCCCCCCCCCCCCCCC(=O)N[C@@H](CCC(=O)N[C@@H](CCC(=O)NCCCC[C@H](NC(=O)[C@H](CC(=O)O)NC(=O)[C@H](CO)NC(=O)[C@@H](NC(=O)[C@H](Cc1ccccc1)NC(=O)[C@@H](NC(=O)CNC(=O)[C@H](CCC(N)=O)NC(=O)C(C)(C)NC(=O)[C@@H](N)Cc1c[nH]cn1)[C@@H](C)O)[C@@H](C)O)C(=O)N[C@@H](CO)C(=O)N[C@@H](CCCCN)C(=O)N[C@@H](Cc1ccc(O)cc1)C(=O)N[C@@H](CC(C)C)C(=O)N[C@@H](CCC(=O)O)C(=O)N[C@@H](CCC(=O)O)C(=O)N[C@@H](CCCNC(=N)N)C(=O)N[C@@H](C)C(=O)N[C@@H](C)C(=O)N[C@@H](CCCCN)C(=O)N[C@@H](CCC(=O)O)C(=O)N[C@@H](Cc1ccccc1)C(=O)N[C@H](C(=O)N[C@@H](C)C(=O)N[C@@H](Cc1c[nH]c2ccccc12)C(=O)N[C@@H](CC(C)C)C(=O)N[C@@H](CCC(=O)O)C(=O)NCC(=O)NCC(=O)N1CCC[C@H]1C(=O)N[C@@H](CO)C(=O)N[C@@H](CO)C(=O)NCC(N)=O)[C@@H](C)CC)C(=O)O)C(=O)O [Compound 21] (HELM PEPTIDE1{H.[Aib].Q.G.T.F.T.S.D.K.S.K.Y.L.E.E.R.A.A.K.E.F.I.A.W.L.E.G.G.P.S.S.G.[am]}|PEPTIDE2{[CCCCCCCCCCCCCCCC(=O)[*:2]].[gGlu].[gGlu]}$PEPTIDE1,PEPTIDE2,10:R3-3:R2$$$V2.0; N-terminus assumed)
0.025	–	–	–	–	–	CC[C@H](C)[C@H](NC(=O)[C@H](Cc1ccccc1)NC(=O)[C@H](CCC(=O)O)NC(=O)[C@H](CCCCN)NC(=O)[C@H](C)NC(=O)[C@H](C)NC(=O)[C@H](CCCNC(=N)N)NC(=O)[C@H](CCC(=O)O)NC(=O)[C@H](CC(=O)O)NC(=O)[C@H](CC(C)C)NC(=O)[C@H](Cc1ccc(O)cc1)NC(=O)[C@H](CCCCN)NC(=O)[C@H](CO)NC(=O)[C@H](CCCCNC(=O)COCCOCCNC(=O)COCCOCCNC(=O)CC[C@H](NC(=O)CCCCCCCCCCCCCCCCC(=O)O)C(=O)O)NC(=O)[C@H](CC(=O)O)NC(=O)[C@H](CO)NC(=O)[C@@H](NC(=O)[C@H](Cc1ccccc1)NC(=O)[C@@H](NC(=O)CNC(=O)[C@H](CCC(N)=O)NC(=O)[C@H](CO)NC(=O)[C@@H](N)Cc1c[nH]cn1)[C@@H](C)O)[C@@H](C)O)C(=O)N[C@@H](C)C(=O)N[C@@H](Cc1c[nH]c2ccccc12)C(=O)N[C@@H](CC(C)C)C(=O)N[C@@H](CCC(=O)O)C(=O)N[C@@H](C)C(=O)NCC(=O)NCC(=O)N1CCC[C@H]1C(=O)N[C@@H](CO)C(=O)N[C@@H](CO)C(=O)NCC(N)=O [Compound 79] (H-HSQGTFTSDK([AEEA-AEEA-γGlu-C18 diacid])SKYLDERAAKEFIAWLEAGGPSSG-NH2; N-terminus assumed)
